Measurements reported in PubChem BioAssay AID1996.
≈ marks a conversion by molar mass, not a printed value.

Conditions: buffer; pH 7.4; 200.0 µM

Row | Compound | solubility kinetic
1 | O=C(OCC(=O)N1CCCC1)c1cc(Cl)ccc1[N+](=O)[O-] | > 46.9 µg/mL
2 | Nc1cc(=O)[nH]c(SCC(=O)Nc2ccc([N+](=O)[O-])cc2)n1 | > 48.2 µg/mL
3 | CCOc1ccccc1NC(=O)COC(=O)c1cc(C)oc1C | 2.2 µg/mL (≈ 6.93 µM)
4 | O=C1ON=C(c2ccccc2)/C1=C/c1ccccc1 | 34.7 µg/mL (≈ 139 µM)
5 | O=C(NCCNC(=O)c1ccc(Cl)cc1Cl)c1ccccn1 | 43.4 µg/mL (≈ 128 µM)
6 | CCOC(=O)c1ccc(S(=O)(=O)NC2CC2)cc1 | 32.4 µg/mL (≈ 120 µM)
7 | CN(C)C(=O)c1ccc(OCC(F)(F)F)nc1 | 36.7 µg/mL (≈ 148 µM)
8 | CNc1snc(C)c1C(=O)OC(C)C(=O)Nc1cccc(C)c1 (stereo not given) | 4.8 µg/mL (≈ 14.4 µM)
9 | CCOC(=O)C(Cc1ccccc1)C(=O)NCc1cccnc1 (stereo not given) | > 46.9 µg/mL
10 | COc1cccc(NC(=O)[C@@H]2CCC(=O)N2C2OC(=O)c3ccccc32)c1 (stereo not given in full) | > 55 µg/mL
11 | CSc1sccc1/C=C(/C#N)C(=O)c1ccco1 | 22.6 µg/mL (≈ 82.1 µM)
12 | Cc1ccc2nc(Cl)c(/C=C/C(=O)c3ccco3)cc2c1 | 15.4 µg/mL (≈ 51.7 µM)
13 | CCN(CC)S(=O)(=O)c1ccc(C(=O)Nc2cc(S(=O)(=O)N3CCOCC3)ccc2O)cc1 | 12.2 µg/mL (≈ 24.5 µM)
14 | N#CCc1ccc(OC(=O)c2cccnc2Cl)cc1 | > 40.9 µg/mL
15 | CCC(C)[C@H](NC(=O)NCc1ccco1)C(=O)OC (stereo not given in full) | > 40.2 µg/mL
16 | O=C(COC(=O)c1ccc([N+](=O)[O-])o1)NCc1ccc2c(c1)OCO2 | > 52.2 µg/mL
17 | C#CCNC(=O)c1ccc(OCc2ccccc2)cc1Cl | 41.7 µg/mL (≈ 139 µM)
18 | COc1ccc(C(=O)O)cc1S(=O)(=O)NC(C)(C)C | > 43.1 µg/mL
19 | COC(=O)c1ccc(C[n+]2ccccc2)cc1.[Br-] | > 46.2 µg/mL
20 | O=[N+]([O-])c1ccc(SCc2ccncc2)nc1 | 30.5 µg/mL (≈ 123 µM)

Row | Compound | solubility kinetic
21 | O=C(COC(=O)COc1ccc(Br)cc1)NCC1CCCO1 (stereo not given) | > 55.8 µg/mL
22 | Cc1ccc(Nc2cc(C)nc(-c3ccccc3)n2)cc1 | 5.2 µg/mL (≈ 18.9 µM)
23 | COc1ccc(CCNC(=S)NCCc2ccc(OC)c(OC)c2)cc1OC | > 60.7 µg/mL
24 | CCOC(=O)c1sc(=NC(=O)c2ccc(F)cc2)n(C)c1C | 1.4 µg/mL (≈ 4.34 µM)
25 | CC(C)NC(=O)C(=O)Nc1cc2c3c(c1)C(C)C(=O)N3CCC2 (stereo not given) | 44.6 µg/mL (≈ 141 µM)
26 | CC(=O)N(C1=NCCCS1)c1ccc(Cl)cc1 | 32.8 µg/mL (≈ 122 µM)
27 | CNC(=O)c1ccccc1NC(=O)C1CC(=O)N(C(C)C)C1 (stereo not given) | 44.7 µg/mL (≈ 147 µM)
28 | COc1ccc(C2C3(C#N)C(N)=NC(OC)(OC)C23C#N)cc1 (stereo not given) | > 46.8 µg/mL
29 | O=C(COc1ccc2ccc(=O)oc2c1)NCc1ccccn1 | > 46.5 µg/mL
30 | O=C(CN1C(=O)C(=O)N(CCC2=CCCCC2)C1=O)c1c[nH]c2ccccc12 | 3.2 µg/mL (≈ 8.43 µM)
31 | O=C(CS(=O)(=O)c1ccc2ccccc2c1)N1CCCCCC1 | 47.1 µg/mL (≈ 142 µM)
32 | Cc1ccc2nc(C)cc(C(=O)NC3CCCCCC3)c2c1 | 3.6 µg/mL (≈ 12.1 µM)
33 | CN(C)/C=N/c1c(C#N)cnn1C | > 26.6 µg/mL
34 | CCCN(C(=O)c1cn(C)c(=O)c2ccccc12)c1ccccc1C | > 50.2 µg/mL
35 | O=c1[nH]c2ccc(NC(=S)Nc3ccc(F)cc3)cc2[nH]1 | > 45.3 µg/mL
36 | O=C(CSc1ncnc2sccc12)Nc1ccccc1F | 5.9 µg/mL (≈ 18.5 µM)
37 | CCOc1ccc(OCCC(=O)Nc2ccc(F)cc2C)cc1 | 5 µg/mL (≈ 15.8 µM)
38 | Cc1cc(C(=O)NC(Cc2c[nH]c3ccccc23)C(=O)O)c(C)o1 (stereo not given) | 41.6 µg/mL (≈ 127 µM)
39 | Cc1ccc(CNCCCSc2ncccn2)cc1 | 36.3 µg/mL (≈ 133 µM)
40 | CN1C2CCC1CC(NC(=O)CSCc1ccc(Cl)cc1Cl)C2 (stereo not given) | > 56 µg/mL

Row | Compound | solubility kinetic
41 | O=C(O)CCSc1nnc(SCC(=O)NC2CCS(=O)(=O)C2)s1 (stereo not given) | > 59.6 µg/mL
42 | C[N+]1(C)CCc2cc3c(cc2[C@H]1[C@@H]1OC(=O)c2c1ccc1c2OCO1)OCO3.[I-] | > 76.4 µg/mL
43 | COc1cc(OC)cc(C(=O)NCC(C)NC(=O)c2cc(OC)cc(OC)c2)c1 (stereo not given) | 39.6 µg/mL (≈ 98.4 µM)
44 | Nc1nnc(CC(=O)Nc2ccccc2)s1 | > 35.1 µg/mL
45 | O=C(c1cccc(C(F)(F)F)c1)N1CCc2c([nH]c3ccccc23)C1C(F)(F)F (stereo not given) | < 0.4 µg/mL
46 | NC(=S)c1c(Cl)cc(C(F)(F)F)cc1Cl | 40.6 µg/mL (≈ 148 µM)
47 | Cc1csc(Nc2ccc(Cl)cc2)n1 | 10.5 µg/mL (≈ 46.7 µM)
48 | COc1ccc(OC)c(NC(=S)N2c3ccccc3CC2C)c1 (stereo not given) | 7.6 µg/mL (≈ 23.1 µM)
49 | Cl.N#C/C(=C/c1cc(Cl)c(O)c(Cl)c1)C(=O)N1CCCCC1 | > 54.2 µg/mL
50 | Cc1cc(Br)ccc1NC(=O)c1ccco1 | > 42 µg/mL
51 | Clc1ccccc1-c1csc(Nc2cccnc2)n1 | 0.3 µg/mL (≈ 1.04 µM)
52 | O=C(NCC(=O)N1CCOCC1)c1ccc(Br)cc1 | > 49.1 µg/mL
53 | CC1(C)CN=C(Nc2ccc(F)c(Cl)c2)S1 | 0.8 µg/mL (≈ 3.09 µM)
54 | CC(C)c1ccccc1NC1=NCCCS1 | 35 µg/mL (≈ 149 µM)
55 | CC(C)c1ccc(NC(=S)NCc2ccc3c(c2)OCO3)cc1 | 4.9 µg/mL (≈ 14.9 µM)
56 | O=C(/C=C/c1ccc(F)cc1)Nc1cccc(S(=O)(=O)N2CCOCC2)c1 | 13.9 µg/mL (≈ 35.6 µM)
57 | C=CCn1c(NCc2ccccc2OC)nc2ccccc21 | 30.2 µg/mL (≈ 103 µM)
58 | COCCNC(=O)CSc1nccn1Cc1ccc2c(c1)OCO2 | > 52.4 µg/mL
59 | CC(=O)NC1CC2CCCC(C1)N2Cc1ccc(C)cc1 (stereo not given) | > 43 µg/mL
60 | Cc1cc(C)c2c(CC(=O)O)c(C)[nH]c2c1 | 28.5 µg/mL (≈ 131 µM)
